Measurements taken from patent publication US20220111034A1, “VIRUS COMPOSITIONS” (priority 2019, published 2022).

Columns and labels:
Mice = assay: Infection of mice by reovirus (Example 7); format: in vivo; conditions: co-administered with the virus
JAM-A = assay: FD-based AFM single-virus force spectroscopy on JAM-A-coated model surfaces; format: binding; conditions: for change in JAM-A-T3SA− binding or multivalent interactions: 1 mM glycan injected, FIG. 6a-c
Method: NHS-PEG27-acetal linkers were used to functionalize AFM tips as described (Gruber. Crosslinkers and Protocols for AFM Tip Functionalization. https://wwwjku.at/institut-fuer-biophysik/forschung/linked, 2018; Wildling et al. Linking of sensor molecules with amino groups to aminofunctionalized AFM tips. Bioconjug. Chem. 2011, vol. 22, 1239-1248). AFM tips (PFQNM-LC and MSCT probes, Bruker) were immersed in chloroform for 10 min, rinsed with ethanol, dried with a stream of filtered nitrogen, cleaned for 10 min using an ultraviolet radiation and ozone (UV-0) cleaner (Jetlight), and immersed overnight in an ethanolamine solution (3.3 g of ethanolamine hydrochloride in 6.6 mL of DMSO). The cantilevers were washed three times with DMSO, and two times with ethanol and dried with nitrogen. To ensure a low grafting density of the linker on the AFM tip, 1 mg of acetal-PEG27-NHS was diluted in 0.5 mL of chloroform with 30 μL of […] (Gruber, supra; Wildling et al., supra). Ethanolamine-coated cantilevers were immersed for 2 h in this solution, washed three times with chloroform, and dried with nitrogen. Cantilevers were then immersed for 10 min in 1% citric acid in milliQ water, washed three times with milliQ water, and dried with nitrogen. Virus solution (80 μL at ˜10^8 to 10^9 particles mL^−1) was pipetted onto the tips placed on Parafilm (Bemis NA) in a small plastic dish stored within an icebox. A freshly prepared solution of NaCNBH3 (2 μL at ˜6% wt. in 0.1 M NaOH(aq)) was gently mixed into the virus solution, and the cantilever chips were gently positioned with the cantilevers extending into the virus drop. The icebox was incubated at 4° C. for 1 h. Then, 5 μL of 1 M ethanolamine solution (pH 8) was gently mixed into the drop to quench the reaction. […]
His6-tagged JAM-A (Bio-Connect Life Science) was immobilized using NTA-His6 binding chemistry, as described (Dupres et al. 2005, supra; Dufrêne. Life at the nanoscale: atomic force microscopy of live cells. Pan Stanford Publishing, 2011). […] The thickness was measured as described for sialic-acid-coated model surfaces.
AFM Nanoscope Multimode 8 (Bruker) was used (Nanoscope software v9.1) to conduct FD-based AFM. Virus-functionalized MSCT-D probes (with spring constants calculated using thermal tune, ranging from 0.024 to 0.043 N m^−1) (Butt & Jaschke. Calculation of thermal noise in atomic-force microscopy. Nanotechnol. 1995, vol. 6, 1-7) were used to record force curves from 5×5 μm arrays in the force-volume (contact) mode. […]

Compound | effect on infectivity of T3SA+ in mice (Mice) | effect on infectivity of T3SA− in mice (Mice) | change in JAM-A-T3SA− binding or multivalent interactions (JAM-A) | effect on the overall binding of T3SA+ to JAM-A (JAM-A; 1 mM glycan, FIG. 5d) | change in T3SA+ISVP-JAM-A multivalent binding behavior (JAM-A; 1 mM free glycan, FIG. 16)
sialyl-lacto-N-tetraose a [LSTa] | significantly increase infectivity | do not affect infectivity | does not induce any change | – | –
CC(=O)N[C@H]1[C@H](O[C@H]2[C@@H](O)[C@@H](CO)O[C@@H](O[C@H]3[C@H](O)[C@@H](O)C(O)O[C@@H]3CO)[C@@H]2O)O[C@H](CO)[C@@H](O[C@@H]2O[C@H](CO)[C@H](O)[C@H](O)[C@H]2O)[C@@H]1O (mixture of isomers) [LNnT, lacto-N-neotetraose, reference compound] | does not affect infectivity | – | – | had no effect | –
CC(=O)N[C@H]1[C@H]([C@H](O)[C@H](O)CO)OC(O)(C(=O)O)C[C@@H]1O (stereo partly drawn) [Neu5Ac, N-acetylneuraminic acid] | significantly increase infectivity | do not affect infectivity | does not induce any change | – | does not induce any change
